The values that follow come from patent EP4233857A1, “BIOACTIVE COMPOUNDS OBTAINED FROM CY[…] SP. LEGE 181152” (CIIMAR - Centro Interdisciplinar de Investigação Marinha e …, priority 2022, dated 2023).

Data set [1] concerns human colorectal carcinoma cell line, HCT 116. Kind of data set: Cytotoxicity on 3D cancer spheroids, cell viability by acid phosphatase assay. The class given is cell-based. The method, then:
The cytotoxicity of the fractions A to H2 was tested against the 3D model of the human colorectal carcinoma cell line, HCT 116. Colorectal cancer has one of the highest incidences among cancer diagnosis and is also one of cancers with the highest mortality rate. Over the years, the 3D cell models have taken over drug screening due to their biologically relevance when compared to the more conventional monolayer model. Three dimensional spheroids are more representative of the microenvironment of an in vivo tumour, with interactions between cells in the different layers - a necrotic core, an intermediate quiescent layer, and a proliferative outer layer.
Cells were seeded in ULA 96 well plates and incubated for 5 days for spheroid formation. After formation, spheroids were exposed to the fractions (25 µg/mL) for 96h. Cell viability was assessed by the acid phosphatase assay. In viable cells these intracellular enzymes hydrolyse […], which can be quantified colorimetrically at 405 nm. The results were expressed as the percentage of cell viability normalized to the solvent control (DMSO). […]

For data set [2], the system named is HCT 116 human colon carcinoma cells. Kind of data set: Cytotoxicity on monolayer (2D) cells. Particulars: 2D assay (monolayer). The data set is classed as cell-based. The method, then: The cytotoxic effect of phormidolide D (3) was tested against HCT 116 human colon carcinoma cells in monolayer (2D) and spheroid models (Figure 11). […] The difference of the IC50 values between the two cell models is commonly reported in the literature. Cancer spheroids tend to be more resistant to treatment than monolayer cells, and thus tend to present higher IC50 values. However, the cytotoxic effects in cancer spheroids are more realistic, because in this culture model, drug diffusion and cell proliferation effects are being tested. The results obtained for compound 3 are very interesting: despite its molecular weight (1064 g/mol) it can still penetrate the tightly packed cells of the outer layer of the spheroid, leading to a decrease in the cell viability in relevant concentrations (Figure 9). […]

For data set [3], the system named is panel of 60 human cancer cell lines. Particulars: Williamson et al., 2002; cited from earlier work.
The test system of a further data set is brine shrimp. Particulars: cited from earlier work.

pIC50: −log10 of the molar value. Entries after “also recorded” stand apart in the source; their conditions may differ.

phormidolide D: the pIC50 was 4.87 in data set [1] and 5.92 in data set [2].

On to phormidolide A, for which the “cytotoxicity against a panel of 60 cancer cells” value in data set [3] is given as “noncytotoxic; also recorded: not considered active”. In the data set with brine shrimp, the LD50 is recorded as 1.5 µM.
